Assay results as given in ChEMBL document CHEMBL3351282, “An update on therapeutic opportunities offered by cancer glycolytic metabolism” (Bioorg Med Chem Lett, 2014).
pEC50, pIC50, pKd: −log10 of the molar value. Values belong to the molecule of their own block, whether it stands above or below them.

Assays:
Pyruvate kinase PKM [1] = molecular target: T1, Pyruvate kinase PKM (Homo sapiens, UniProt P14618); test: Activation of pyruvate kinase PKM2 in human A549 cells; type: cell-based
Pyruvate kinase PKM [2] = molecular target: T1, Pyruvate kinase PKM; test: Activation of pyruvate kinase PKM2 (unknown origin)
Alpha-enolase = Alpha-enolase (Homo sapiens, UniProt P06733); test: Inhibition of ENO1 (unknown origin)
Sequence of Alpha-enolase (P06733 whole entry): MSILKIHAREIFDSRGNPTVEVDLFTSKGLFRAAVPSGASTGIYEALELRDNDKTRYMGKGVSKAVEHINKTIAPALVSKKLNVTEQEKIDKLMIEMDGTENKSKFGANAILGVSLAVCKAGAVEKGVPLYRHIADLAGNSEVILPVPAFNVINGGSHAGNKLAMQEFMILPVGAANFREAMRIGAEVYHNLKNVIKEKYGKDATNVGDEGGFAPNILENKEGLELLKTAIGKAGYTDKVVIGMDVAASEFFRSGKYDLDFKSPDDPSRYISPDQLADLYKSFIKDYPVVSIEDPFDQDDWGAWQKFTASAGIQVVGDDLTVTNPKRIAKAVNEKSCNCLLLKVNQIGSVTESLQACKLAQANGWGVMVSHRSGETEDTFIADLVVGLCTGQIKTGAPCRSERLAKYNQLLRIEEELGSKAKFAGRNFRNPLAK

Homo sapiens = organism: Homo sapiens; test: Inhibition of glucose transporter GLUT (unknown origin) by standard glucose uptake assay; conditions: concentration not given here
[3] = Growth inhibition of human H1299 cells; type: functional, NCI-H1299
[4] = Cytotoxicity against human H1299 cells assessed as reduction in cell viability; type: functional, cell-based; conditions: NCI-H1299
A549 = test: Antitumor activity against human A549 cells in in-vivo xenograft model assessed as reduction in tumor volume at 10 mg/kg/day, ip; type: functional; conditions: route intraperitoneal
[5] = molecular target: T2, Monocarboxylate transporter 1 (Homo sapiens, UniProt P53985); test: Binding affinity to MCT1 (unknown origin)
T2 sequence (P53985 whole entry): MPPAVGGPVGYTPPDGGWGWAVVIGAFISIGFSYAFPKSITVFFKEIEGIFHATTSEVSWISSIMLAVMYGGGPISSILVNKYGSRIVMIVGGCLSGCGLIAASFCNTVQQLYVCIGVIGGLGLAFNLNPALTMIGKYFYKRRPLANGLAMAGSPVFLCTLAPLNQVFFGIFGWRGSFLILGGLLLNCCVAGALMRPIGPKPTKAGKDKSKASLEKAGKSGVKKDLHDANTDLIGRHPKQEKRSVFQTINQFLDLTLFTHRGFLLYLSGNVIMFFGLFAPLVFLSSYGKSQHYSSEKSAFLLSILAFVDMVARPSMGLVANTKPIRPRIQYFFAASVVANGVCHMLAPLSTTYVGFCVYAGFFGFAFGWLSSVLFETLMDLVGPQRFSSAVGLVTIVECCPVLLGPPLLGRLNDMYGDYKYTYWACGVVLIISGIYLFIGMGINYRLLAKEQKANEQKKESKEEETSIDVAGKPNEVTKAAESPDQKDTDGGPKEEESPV

[6] = Antiproliferative activity against human MIAPaCa2 cells assessed as inhibition of cell proliferation; type: functional, cell-based; conditions: MIA PaCa-2
[7] = Growth inhibition of VHL-positive human RCC4/VHL cells; type: functional, cell-based
[8] = Growth inhibition of VHL deficient human RCC4 cells; type: functional, cell-based
Hexokinase-2 = molecular target: T3, Hexokinase-2 (Homo sapiens, UniProt P52789); test: Inhibition of hexokinase 2 (unknown origin)
T3 sequence (P52789 whole entry): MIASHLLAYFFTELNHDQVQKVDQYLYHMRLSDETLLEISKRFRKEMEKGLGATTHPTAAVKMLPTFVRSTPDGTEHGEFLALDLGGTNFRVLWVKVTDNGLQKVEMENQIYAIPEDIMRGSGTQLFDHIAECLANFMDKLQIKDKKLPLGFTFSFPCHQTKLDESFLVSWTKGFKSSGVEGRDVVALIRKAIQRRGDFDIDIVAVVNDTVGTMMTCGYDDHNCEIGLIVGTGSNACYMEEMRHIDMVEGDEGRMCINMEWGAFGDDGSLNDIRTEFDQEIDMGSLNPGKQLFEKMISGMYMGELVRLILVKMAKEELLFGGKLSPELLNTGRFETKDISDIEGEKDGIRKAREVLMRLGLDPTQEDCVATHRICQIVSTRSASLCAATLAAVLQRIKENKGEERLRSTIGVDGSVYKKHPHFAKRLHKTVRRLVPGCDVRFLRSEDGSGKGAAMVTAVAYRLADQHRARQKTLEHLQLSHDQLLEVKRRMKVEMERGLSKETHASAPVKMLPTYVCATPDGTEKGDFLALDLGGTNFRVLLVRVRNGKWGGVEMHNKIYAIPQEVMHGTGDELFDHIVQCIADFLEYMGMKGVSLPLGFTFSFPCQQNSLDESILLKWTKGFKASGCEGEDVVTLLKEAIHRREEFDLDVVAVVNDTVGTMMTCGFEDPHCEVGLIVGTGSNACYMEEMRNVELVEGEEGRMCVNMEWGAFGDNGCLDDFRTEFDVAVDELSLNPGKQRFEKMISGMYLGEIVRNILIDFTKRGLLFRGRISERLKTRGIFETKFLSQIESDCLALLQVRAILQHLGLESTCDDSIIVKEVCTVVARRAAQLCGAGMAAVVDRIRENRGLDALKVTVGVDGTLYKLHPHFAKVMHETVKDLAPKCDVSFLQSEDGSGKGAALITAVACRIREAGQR

[9] = molecular target: 6-phosphofructo-2-kinase/fructose-2,6-bisphosphatase 3 (Homo sapiens, UniProt Q16875); test: Inhibition of PFKFB3 (unknown origin)
Sequence of 6-phosphofructo-2-kinase/fructose-2,6-bisphosphatase 3 (Q16875 whole entry): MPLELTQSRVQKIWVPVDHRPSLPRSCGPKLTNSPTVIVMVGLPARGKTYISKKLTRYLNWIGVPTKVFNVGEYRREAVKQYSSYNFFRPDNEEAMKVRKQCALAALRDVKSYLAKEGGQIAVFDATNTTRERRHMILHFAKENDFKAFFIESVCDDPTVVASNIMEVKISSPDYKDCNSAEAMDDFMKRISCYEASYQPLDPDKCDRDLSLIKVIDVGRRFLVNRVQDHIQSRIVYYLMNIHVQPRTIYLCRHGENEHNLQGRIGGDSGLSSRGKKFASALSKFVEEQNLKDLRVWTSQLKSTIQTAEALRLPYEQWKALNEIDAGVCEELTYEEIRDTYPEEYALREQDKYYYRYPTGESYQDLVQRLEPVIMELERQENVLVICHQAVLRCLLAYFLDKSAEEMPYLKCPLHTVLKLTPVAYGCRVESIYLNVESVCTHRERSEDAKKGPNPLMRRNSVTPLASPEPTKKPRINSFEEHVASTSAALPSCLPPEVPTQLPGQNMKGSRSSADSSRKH

T1 sequence (P14618 whole entry): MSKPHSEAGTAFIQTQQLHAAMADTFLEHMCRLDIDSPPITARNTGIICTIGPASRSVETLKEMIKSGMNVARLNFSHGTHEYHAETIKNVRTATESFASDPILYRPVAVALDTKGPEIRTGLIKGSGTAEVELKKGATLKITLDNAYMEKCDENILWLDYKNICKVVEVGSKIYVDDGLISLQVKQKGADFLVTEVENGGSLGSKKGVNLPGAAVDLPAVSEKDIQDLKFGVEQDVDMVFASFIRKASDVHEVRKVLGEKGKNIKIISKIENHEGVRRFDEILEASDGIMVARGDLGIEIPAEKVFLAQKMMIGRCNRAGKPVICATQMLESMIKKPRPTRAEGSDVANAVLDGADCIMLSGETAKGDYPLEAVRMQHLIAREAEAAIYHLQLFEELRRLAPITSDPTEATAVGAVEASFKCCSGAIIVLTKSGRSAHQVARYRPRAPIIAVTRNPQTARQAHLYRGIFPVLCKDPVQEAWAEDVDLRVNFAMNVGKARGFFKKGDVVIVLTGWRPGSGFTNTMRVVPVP

Compound: NCCOCCOCCNC(=O)Cc1ccc(Nc2nc(NCc3ccc(F)cc3)nc(NCC3CCCCC3)n2)cc1
pIC50 (Alpha-enolase): 6.24

Compound: O=C(Oc1cccc(F)c1OC(=O)c1cccc(O)c1)c1cccc(O)c1
inhibition (Homo sapiens): 93%
growth inhibition (GI) [3]: 41%
pIC50 [4]: 5.00
inhibition in vivo at 10 mg/kg/day (A549): 70%

Compound: CS(=O)(=O)N1CCc2cc(S(=O)(=O)c3ccc4c(c3)OCCO4)ccc21
AC50 (Pyruvate kinase PKM [2]): 45 nM

Compound: O=C1CC(c2ccc(N3CCOCC3)cc2)(c2ccsc2)NC(=O)C1Sc1ccccc1Cl (stereo not given)
pEC50 [6]: 6.60

Compound: NCCOCCOCCOCCOCCOCCOCCCc1ccc(S(=O)(=O)NCc2ccc(C(=O)Nc3cccnc3)cc2)cc1
pIC50 [7]: < 4.40
pIC50 [8]: 5.10

Compound: O=C(/C=C/c1ccc2ccccc2n1)c1ccncc1
pIC50 [9]: 6.68

Compound: O=C(/C=C/c1cccnc1)c1ccncc1
pIC50 [9]: 4.64

Now from value to molecule:

AC50 (Pyruvate kinase PKM [1]): 45 nM
AC50 (Pyruvate kinase PKM [2]): 17 nM
Compound: COc1ccccc1N1CCN(C(=O)c2ccc(NS(=O)(=O)c3cccc4cccnc34)cc2)CC1

pKd [5]: 8.80
Compound: Cc1[nH]nc(C(F)(F)F)c1Cc1sc2c(c1C(=O)N1C[C@](C)(O)CO1)c(=O)n(C)c(=O)n2C(C)C [AZD3965]

pIC50 (Hexokinase-2): > 6.50
Compound: Cc1ccc(S(=O)(=O)NC[C@H]2O[C@@H](O)[C@H](NC(=O)/C=C/c3ccc(Cl)c(Cl)c3)[C@@H](O)[C@@H]2O)cc1
